# Test results taken from paper PMC10991509, “A phase I study of ATR inhibitor gartisertib (M4344) as a single agent and in combination with carboplatin in patients with advanced solid tumours” (British Journal of Cancer, 2024).
# System: advanced solid tumours
# Assay: Antitumour activity (RECIST v1.1)
# Type: in vivo, human
# Text: The secondary objectives for cohorts A, A2, and B1 were to assess antitumour activity and PK. Endpoints associated with antitumour activity included confirmed best overall response (BOR), according to RECIST v1.1. PK endpoints included PK parameter estimates, derived from plasma concentration-time data. Please see the Supplementary Materials for details on further PK endpoints and assessments as well as the PK assessment schedule (Supplementary Table S2).
# In cohort C, the primary objectives were to evaluate safety, tolerability, and antitumour activity of gartisertib monotherapy in patients with LOF mutations in ARID1A (cohort C1), ATRX and/or DAXX (cohort C2), or ATM (cohort C3). The primary endpoints included safety (treatment-emergent AEs [TEAEs] and treatment-related TEAEs; laboratory abnormalities; clinically significant abnormal vital signs; and clinically significant abnormal ECGs and antitumour activity (objective response [OR], defined as confirmed BOR of complete response [CR] or partial response [PR], according to RECIST v1.1). Secondary endpoints included duration of response; progression-free survival [PFS]) as well as PK parameter estimates of gartisertib in patients with LOF mutations. The Supplementary Materials provide further information on efficacy assessments and definitions.
# In cohorts A, A2, B1, and C, antitumor activity was assessed in patients with measurable disease with standard criteria (Response Evaluation Criteria in Solid Tumors version 1.1 [RECIST v1.1]). In patients with prostate cancer, Prostate Cancer Clinical Trials Working Group 2 (PCWG2) criteria were used. Patients underwent an imaging scan at screening to document extent of initial disease and in all cohorts of the study, patients underwent repeat imaging scans. Imaging scans were locally assessed for all study cohorts. Bone scans were performed as were evaluations of serum […] in patients with ovarian cancer and serum prostate-specific antigen in patients with prostate cancer.
# In addition, for cohort C, tumor assessments according to RECIST v1.1 were performed at baseline and at completion of every two cycles of treatment for the first six cycles and then every three cycles thereafter until disease progression or initiation of a new anticancer therapy line. Objective response, best overall response, duration of response and progression-free survival will be determined by the investigator based on these tumor assessments, with objective responses needing to be confirmed at a scan no fewer than 4 weeks after the original evaluation. Independent review may be performed if necessary.
# Objective response was defined as a confirmed assessment of complete response or partial response by the investigator using RECIST v1.1. Confirmed best overall response was defined as the best confirmed response from start of treatment. Tumor assessments performed after start of further anticancer treatment line were not used to determine best overall response. Progression-free survival was defined as the time between the start of study treatment to progressive disease (PD) or death (in case PD is not observed prior to death).
structure (smiles),measurement,setting,value
"Nc1nn2cc(F)cnc2c1C(=O)Nc1cncc(F)c1N1CCC(C(=O)N2CCN(C3COC3)CC2)CC1 [gartisertib, Gartisertib]",cBOR Not evaluable,"Cohort A2, 100 mg BID (N=7)",2 (28.6) n patients (%)
same,cBOR Partial response,"Cohort A2, 100 mg BID (N=7)",0 (0.0) n patients (%)
same,cBOR Progressive disease,"Cohort A2, 100 mg BID (N=7)",4 (57.1) n patients (%)
same,cBOR Stable disease,"Cohort A2, 100 mg BID (N=7)",1 (14.3) n patients (%)
same,cBOR Not evaluable,"Cohort A2, 150 mg QD (N=4)",0 (0.0) n patients (%)
same,cBOR Partial response,"Cohort A2, 150 mg QD (N=4)",0 (0.0) n patients (%)
same,cBOR Progressive disease,"Cohort A2, 150 mg QD (N=4)",3 (75.0) n patients (%)
same,cBOR Stable disease,"Cohort A2, 150 mg QD (N=4)",1 (25.0) n patients (%)
same,cBOR Not evaluable,"Cohort A2, 250 mg QD (N=7)",0 (0.0) n patients (%)
same,cBOR Partial response,"Cohort A2, 250 mg QD (N=7)",0 (0.0) n patients (%)
same,cBOR Progressive disease,"Cohort A2, 250 mg QD (N=7)",3 (42.9) n patients (%)
same,cBOR Stable disease,"Cohort A2, 250 mg QD (N=7)",4 (57.1) n patients (%)
same,cBOR Not evaluable,"Cohort A2, 350 mg QD (N=5)",0 (0.0) n patients (%)
same,cBOR Partial response,"Cohort A2, 350 mg QD (N=5)",0 (0.0) n patients (%)
same,cBOR Progressive disease,"Cohort A2, 350 mg QD (N=5)",3 (60.0) n patients (%)
same,cBOR Stable disease,"Cohort A2, 350 mg QD (N=5)",2 (40.0) n patients (%)
same,cBOR Not evaluable,"Cohort A, 10 mg BIW (N=1)",1 (100.0) n patients (%)
same,cBOR Partial response,"Cohort A, 10 mg BIW (N=1)",0 (0.0) n patients (%)
same,cBOR Progressive disease,"Cohort A, 10 mg BIW (N=1)",0 (0.0) n patients (%)
same,cBOR Stable disease,"Cohort A, 10 mg BIW (N=1)",0 (0.0) n patients (%)
same,cBOR Not evaluable,"Cohort A, 20 mg BIW (N=1)",0 (0.0) n patients (%)
same,cBOR Partial response,"Cohort A, 20 mg BIW (N=1)",0 (0.0) n patients (%)
same,cBOR Progressive disease,"Cohort A, 20 mg BIW (N=1)",0 (0.0) n patients (%)
same,cBOR Stable disease,"Cohort A, 20 mg BIW (N=1)",1 (100.0) n patients (%)
same,cBOR Not evaluable,"Cohort A, 40 mg BIW (N=1)",0 (0.0) n patients (%)
same,cBOR Partial response,"Cohort A, 40 mg BIW (N=1)",0 (0.0) n patients (%)
same,cBOR Progressive disease,"Cohort A, 40 mg BIW (N=1)",1 (100.0) n patients (%)
same,cBOR Stable disease,"Cohort A, 40 mg BIW (N=1)",0 (0.0) n patients (%)
same,cBOR Not evaluable,"Cohort A, 80 mg BIW (N=1)",0 (0.0) n patients (%)
same,cBOR Partial response,"Cohort A, 80 mg BIW (N=1)",0 (0.0) n patients (%)
same,cBOR Progressive disease,"Cohort A, 80 mg BIW (N=1)",1 (100.0) n patients (%)
same,cBOR Stable disease,"Cohort A, 80 mg BIW (N=1)",0 (0.0) n patients (%)
same,cBOR Not evaluable,"Cohort A, 160 mg BIW (N=1)",0 (0.0) n patients (%)
same,cBOR Partial response,"Cohort A, 160 mg BIW (N=1)",0 (0.0) n patients (%)
same,cBOR Progressive disease,"Cohort A, 160 mg BIW (N=1)",1 (100.0) n patients (%)
same,cBOR Stable disease,"Cohort A, 160 mg BIW (N=1)",0 (0.0) n patients (%)
same,cBOR Not evaluable,"Cohort A, 300 mg BIW (N=1)",0 (0.0) n patients (%)
same,cBOR Partial response,"Cohort A, 300 mg BIW (N=1)",0 (0.0) n patients (%)
same,cBOR Progressive disease,"Cohort A, 300 mg BIW (N=1)",1 (100.0) n patients (%)
same,cBOR Stable disease,"Cohort A, 300 mg BIW (N=1)",0 (0.0) n patients (%)
same,cBOR Not evaluable,"Cohort A, 450 mg BIW (N=3)",0 (0.0) n patients (%)
same,cBOR Partial response,"Cohort A, 450 mg BIW (N=3)",0 (0.0) n patients (%)
same,cBOR Progressive disease,"Cohort A, 450 mg BIW (N=3)",1 (33.3) n patients (%)
same,cBOR Stable disease,"Cohort A, 450 mg BIW (N=3)",2 (66.7) n patients (%)
same,cBOR Not evaluable,"Cohort A, 700 mg BIW (N=6)",2 (33.3) n patients (%)
same,cBOR Partial response,"Cohort A, 700 mg BIW (N=6)",0 (0.0) n patients (%)
same,cBOR Progressive disease,"Cohort A, 700 mg BIW (N=6)",2 (33.3) n patients (%)
same,cBOR Stable disease,"Cohort A, 700 mg BIW (N=6)",2 (33.3) n patients (%)
same,cBOR Not evaluable,"Cohort A, 1050 mg BIW (N=7)",1 (14.3) n patients (%)
same,cBOR Partial response,"Cohort A, 1050 mg BIW (N=7)",0 (0.0) n patients (%)
same,cBOR Progressive disease,"Cohort A, 1050 mg BIW (N=7)",5 (71.4) n patients (%)
same,cBOR Stable disease,"Cohort A, 1050 mg BIW (N=7)",1 (14.3) n patients (%)
same,cBOR Not evaluable,"Cohort A, 1200 mg BIW (N=4)",2 (50.0) n patients (%)
same,cBOR Partial response,"Cohort A, 1200 mg BIW (N=4)",0 (0.0) n patients (%)
same,cBOR Progressive disease,"Cohort A, 1200 mg BIW (N=4)",1 (25.0) n patients (%)
same,cBOR Stable disease,"Cohort A, 1200 mg BIW (N=4)",1 (25.0) n patients (%)
same,cBOR Not evaluable,"Cohort C, 250 mg QD (N=13)",2 (15.4) n patients (%)
same,cBOR Partial response,"Cohort C, 250 mg QD (N=13)",0 (0.0) n patients (%)
same,cBOR Progressive disease,"Cohort C, 250 mg QD (N=13)",8 (61.5) n patients (%)
same,cBOR Stable disease,"Cohort C, 250 mg QD (N=13)",3 (23.1) n patients (%)
same,BOR of SD,cohort A2 (full analysis set 23),34.8%
same,BOR of SD,cohort A (full analysis set 26),26.9%
same,BOR of SD,cohort C (full analysis set 13),23.1%
same,median PFS interval,"cohort C, 95% CI 0.8, 2.1",1.6 months
same,"disease control according to selected biomarker status (ARID1A, ATRX/DAXX, ATM)",cohorts A2 and C,No difference in disease control
same,patients with SD for >6 months,three patients across all study cohorts,3.1%
